Laboratory results as given in US20200270309A1, “MALEIMIDE GROUP-MODIFIED ANGIOGENESIS INHIBITOR HM-1 AND USE THEREOF” (NANJING ANJI BIOLOGICAL TECHNOLOGY CO., LTD, priority 2017, published 2020).
Marks after values point to notes of the source that are not given here. One block for each compound: values may come before it. Peptide text beside a SMILES is read from it. * marks the point of attachment. X64 = O=C1C=CC(=O)N1c1cccc(CCCCCCCCCC(=O)*)c1; X63 = O=C1C=CC(=O)N1c1ccccc1CCCCCCC(=O)*; X79 = O=C1C=CC(=O)N1c1cccc(CCC(=O)*)c1

Tests used:
[1] = Half-lives and pharmacokinetic parameters of polypeptides vs HM-1; settings: in vivo; for half-life: T1/2β (half-life)
[2] = tested on: HUVECs; assay: Transwell migration inhibition on HUVECs; format: cell-based, human; settings: for Inhibition rate (%): HUVEC migration vs blank control; for Cell migration number (Mean ± SD): HUVECs, transwell, 24 h
[3] = tested on: xylene-induced ear swelling; assay: Xylene-induced mouse ear swelling; format: in vivo; settings: Kunming mice, injected once a day for 5 days; for Swelling degree / Swelling degree (mg): right minus left ear piece weight 2 h after xylene; for Inhibition rate (%): xylene-induced ear swelling
Method in brief: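 Ear pieces punched and weighed 2 h after xylene (0.05 mL, right ear only; left ear as normal) gave swelling degree (right − left weight) and swelling rate (degree/left weight ×100%). Kunming mice received injections daily for 5 consecutive days, xylene applied 1 h after final dose.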

[4] = tested on: collagen-induced arthritis; assay: Mouse collagen-induced arthritis (CIA) animal model; format: in vivo; settings: DBA/1 mice CIA model, dose 4.0 mg/kg, subcutaneous from day 30, n=10; for Clinical score: highest score 16
[5] = tested on: carrageenan-induced toe swelling; assay: Carrageenan-induced toe swelling in rats; format: in vivo; settings: SD rats; for Swelling degree 1 h: 1 h after carrageenan; for Swelling degree 3 h: 3 h after carrageenan; for Swelling degree 5 h: 5 h after carrageenan; for Swelling degree 7 h: 7 h after carrageenan
Method in brief: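 Paw swelling, in mL, is the post-inflammation minus pre-inflammation volume of the right hind foot, read as overflow liquid when immersed to a pen-marked joint. Treatment was daily injection over 3 d; model group received saline of the same volume.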

[6] = tested on: human retinal capillary endothelial cells (HRCECs); assay: MTT proliferation inhibition on HRCECs; format: cell-based; settings: 48 h; for A570 nm-A630 nm: mean±SD
Method in brief: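 HRCECs seeded at 3.0×10^4 cells/mL, adhered overnight, then exposed to polypeptide for 48 h at 37 °C, 5% CO2. MTT added 4 h, formazan dissolved in DMSO, absorbance 570/630 nm; PIR (%) = 1 − treated/negative control, mean±SD of three independent runs.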

[7] = tested on: corneal neovascularization; assay: Corneal neovascularization induced by alkali burn in BALB/c mice; format: in vivo; set-up: Inhibition rate (corneal neovascularization): concentration or dose not given beside the values; settings: day 14 after alkali burn, vitreous injection once a day for 1 week
[8] = tested on: choroidal neovascularization; assay: Choroidal neovascularization in rats (laser photocoagulation, FFA); format: in vivo; settings: BN rats
Method in brief: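 Male BN rats aged 6-8 weeks were given 8 krypton-laser spots around the optic disc (647.1 nm, 350 mW, 50 μm, 0.05 s). Once the model was confirmed, groups of 5 got daily intravitreal compound at 0.05 μM or saline for 1 week. FFA followed at 3, 7, 14 and 28 days after dosing.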

[9] = day 3 after administration, total light spot number was 297, 0.05 μM in the vitreous chamber once a day for 1 week
[10] = day 7 after administration, total light spot number was 186, 0.05 μM in the vitreous chamber once a day for 1 week
[11] = day 14 after administration, total light spot number was 137, 0.05 μM in the vitreous chamber once a day for 1 week
[12] = day 28 after administration, total light spot number was 69, 0.05 μM in the vitreous chamber once a day for 1 week

AUC(0-inf) [1]: 34600 ± 8340 ng·h/mL
MRT inf [1]: 62 ± 9.63 h
clearance [1]: 0.482 mL/min/kg
half-life [1]: 42.95 ± 0.36 h
Compound: C[C@H](NC(=O)CNC(=O)[C@H](CCCNC(=N)N)NC(=O)CCc1cccc(N2C(=O)C=CC2=O)c1)C(=O)N[C@@H](CC(=O)O)C(=O)N[C@@H](CCCNC(=N)N)C(=O)N[C@@H](C)C(=O)NCC(=O)NCC(=O)NCC(=O)NCC(=O)N[C@@H](CCCNC(=N)N)C(=O)NCC(=O)N[C@@H](CC(=O)O)C(=O)O [X26] (X79-RGADRAGGGGRGD-OH)
Inhibition rate (%) ([2]; dose 0.05 μM): 46.81%
Inhibition rate (%) ([2]; dose 0.1 μM): 48.98%
Inhibition rate (%) ([2]; dose 0.2 μM): 53.86%
Cell migration number (Mean ± SD) ([2]; dose 0.05 μM): 570.08 ± 49.26
Cell migration number (Mean ± SD) ([2]; dose 0.1 μM): 546.86 ± 60.43
Cell migration number (Mean ± SD) ([2]; dose 0.2 μM): 494.57 ± 48.88
Swelling degree ([3]; dose 2 mg/kg): 5.88 ± 0.72 mg
Inhibition rate (%) ([3]; dose 2 mg/kg): 5.62%
Swelling degree ([3]; dose 4 mg/kg): 5.78 ± 0.62 mg
Inhibition rate (%) ([3]; dose 4 mg/kg): 7.22%
Swelling degree (mg) ([3]; dose 8 mg/kg): 4.54 ± 0.61** mg
Inhibition rate (%) ([3]; dose 8 mg/kg): 49.76%
Joint swelling degree (mm) [4]: 0.71 ± 0.14 mm
Left and right paw swelling degree (mm) [4]: 0.84 ± 0.12 mm
Clinical score [4]: 9.07 ± 1.32
Swelling degree 1 h ([5]; 2.0 mg/kg once a day for 3 d): 0.28 ± 0.17 mg
Swelling degree 3 h ([5]; 2.0 mg/kg once a day for 3 d): 0.31 ± 0.18 mg
Swelling degree 5 h ([5]; 2.0 mg/kg once a day for 3 d): 0.42 ± 0.11 mg
Swelling degree 7 h ([5]; 2.0 mg/kg once a day for 3 d): 0.39 ± 0.12 mg
Swelling degree 1 h ([5]; 4.0 mg/kg once a day for 3 d): 0.25 ± 0.18 mg
Swelling degree 3 h ([5]; 4.0 mg/kg once a day for 3 d): 0.31 ± 0.13 mg
Swelling degree 5 h ([5]; 4.0 mg/kg once a day for 3 d): 0.40 ± 0.15 mg
Swelling degree 7 h ([5]; 4.0 mg/kg once a day for 3 d): 0.30 ± 0.16 mg
Inhibition rate (%) ([6]; dose 0.05 μM): 41.47%*
A570 nm-A630 nm ([6]; dose 0.05 μM): 0.7736 ± 0.06908
Inhibition rate (%) ([6]; dose 0.1 μM): 48.48%**
A570 nm-A630 nm ([6]; dose 0.1 μM): 0.6810 ± 0.02943
Inhibition rate (%) ([6]; dose 0.2 μM): 68.51%*
A570 nm-A630 nm ([6]; dose 0.2 μM): 0.4162 ± 0.00082
Inhibition rate (corneal neovascularization) [7]: 44.32%
MVD (corneal microvessel density) [7]: 37.44 ± 4.646
CNV Incidence (%) [8, 9]: 55.22%
Leakage Light spot number [8, 9]: 164
CNV Incidence (%) [8, 10]: 49.46%
Leakage Light spot number [8, 10]: 92
CNV Incidence (%) [8, 11]: 45.26%
Leakage Light spot number [8, 11]: 62
CNV Incidence (%) [8, 12]: 43.48%
Leakage Light spot number [8, 12]: 30

AUC(0-inf) [1]: 27200 ± 7310 ng·h/mL
MRT inf [1]: 48.7 ± 14.1 h
clearance [1]: 0.613 mL/min/kg
half-life [1]: 33.75 ± 0.27 h
Compound: C[C@H](NC(=O)CNC(=O)[C@H](CCCNC(=N)N)NC(=O)CCCCCCc1ccccc1N1C(=O)C=CC1=O)C(=O)N[C@@H](CC(=O)O)C(=O)N[C@@H](CCCNC(=N)N)C(=O)N[C@@H](C)C(=O)NCC(=O)NCC(=O)NCC(=O)NCC(=O)N[C@@H](CCCNC(=N)N)C(=O)NCC(=O)N[C@@H](CC(=O)O)C(=O)O [X18] (X63-RGADRAGGGGRGD-OH)
Inhibition rate (%) ([2]; dose 0.05 μM): 40.73%
Inhibition rate (%) ([2]; dose 0.1 μM): 41.02%
Inhibition rate (%) ([2]; dose 0.2 μM): 44.55%
Cell migration number (Mean ± SD) ([2]; dose 0.05 μM): 635.26 ± 59.22
Cell migration number (Mean ± SD) ([2]; dose 0.1 μM): 632.13 ± 55.39
Cell migration number (Mean ± SD) ([2]; dose 0.2 μM): 594.30 ± 45.38
Swelling degree ([3]; dose 2 mg/kg): 5.42 ± 0.18 mg
Inhibition rate (%) ([3]; dose 2 mg/kg): 13.00%
Swelling degree ([3]; dose 4 mg/kg): 5.28 ± 0.46 mg
Inhibition rate (%) ([3]; dose 4 mg/kg): 15.25%
Swelling degree (mg) ([3]; dose 8 mg/kg): 4.18 ± 0.9** mg
Inhibition rate (%) ([3]; dose 8 mg/kg): 32.91%
Joint swelling degree (mm) [4]: 0.72 ± 0.11 mm
Left and right paw swelling degree (mm) [4]: 0.79 ± 0.12 mm
Clinical score [4]: 8.91 ± 1.29
Swelling degree 1 h ([5]; 2.0 mg/kg once a day for 3 d): 0.23 ± 0.18 mg
Swelling degree 3 h ([5]; 2.0 mg/kg once a day for 3 d): 0.33 ± 0.16 mg
Swelling degree 5 h ([5]; 2.0 mg/kg once a day for 3 d): 0.36 ± 0.15 mg
Swelling degree 7 h ([5]; 2.0 mg/kg once a day for 3 d): 0.32 ± 0.13 mg
Swelling degree 1 h ([5]; 4.0 mg/kg once a day for 3 d): 0.24 ± 0.17 mg
Swelling degree 3 h ([5]; 4.0 mg/kg once a day for 3 d): 0.39 ± 0.18 mg
Swelling degree 5 h ([5]; 4.0 mg/kg once a day for 3 d): 0.45 ± 0.15 mg
Swelling degree 7 h ([5]; 4.0 mg/kg once a day for 3 d): 0.33 ± 0.12 mg
Inhibition rate (%) ([6]; dose 0.05 μM): 42.60%*
A570 nm-A630 nm ([6]; dose 0.05 μM): 0.7586 ± 0.05265
Inhibition rate (%) ([6]; dose 0.1 μM): 52.30%**
A570 nm-A630 nm ([6]; dose 0.1 μM): 0.6304 ± 0.03508
Inhibition rate (%) ([6]; dose 0.2 μM): 61.78%*
A570 nm-A630 nm ([6]; dose 0.2 μM): 0.5051 ± 0.08266
Inhibition rate (corneal neovascularization) [7]: 50.18%
MVD (corneal microvessel density) [7]: 33.50 ± 5.649
CNV Incidence (%) [8, 9]: 53.87%
Leakage Light spot number [8, 9]: 160
CNV Incidence (%) [8, 10]: 46.24%
Leakage Light spot number [8, 10]: 86
CNV Incidence (%) [8, 11]: 45.99%
Leakage Light spot number [8, 11]: 63
CNV Incidence (%) [8, 12]: 44.93%
Leakage Light spot number [8, 12]: 31

AUC(0-inf) [1]: 34000 ± 7620 ng·h/mL
MRT inf [1]: 60.8 ± 12 h
clearance [1]: 0.49 mL/min/kg
half-life [1]: 42.15 ± 0.26 h
Compound: C[C@H](NC(=O)CNC(=O)[C@H](CCCNC(=N)N)NC(=O)CCCCCCCCCc1cccc(N2C(=O)C=CC2=O)c1)C(=O)N[C@@H](CC(=O)O)C(=O)N[C@@H](CCCNC(=N)N)C(=O)N[C@@H](C)C(=O)NCC(=O)NCC(=O)NCC(=O)NCC(=O)N[C@@H](CCCNC(=N)N)C(=O)NCC(=O)N[C@@H](CC(=O)O)C(=O)O [X33] (X64-RGADRAGGGGRGD-OH)
Inhibition rate (%) ([2]; dose 0.05 μM): 42.63%
Inhibition rate (%) ([2]; dose 0.1 μM): 47.45%
Inhibition rate (%) ([2]; dose 0.2 μM): 54.20%
Swelling degree ([3]; dose 2 mg/kg): 3.22 ± 0.59 mg
Inhibition rate (%) ([3]; dose 2 mg/kg): 17.34%
Swelling degree (mg) ([3]; dose 4 mg/kg): 5.15 ± 0.19* mg
Inhibition rate (%) ([3]; dose 4 mg/kg): 29.21%
Swelling degree (mg) ([3]; dose 8 mg/kg): 4.41 ± 0.9** mg
Inhibition rate (%) ([3]; dose 8 mg/kg): 48.31%
Joint swelling degree (mm) [4]: 0.82 ± 0.11 mm
Left and right paw swelling degree (mm) [4]: 0.74 ± 0.17 mm
Clinical score [4]: 9.08 ± 1.25
Swelling degree 1 h ([5]; 2.0 mg/kg once a day for 3 d): 0.22 ± 0.13 mg
Swelling degree 3 h ([5]; 2.0 mg/kg once a day for 3 d): 0.37 ± 0.11 mg
Swelling degree 5 h ([5]; 2.0 mg/kg once a day for 3 d): 0.42 ± 0.17 mg
Swelling degree 7 h ([5]; 2.0 mg/kg once a day for 3 d): 0.35 ± 0.13 mg
Swelling degree 1 h ([5]; 4.0 mg/kg once a day for 3 d): 0.25 ± 0.14 mg
Swelling degree 3 h ([5]; 4.0 mg/kg once a day for 3 d): 0.31 ± 0.13 mg
Swelling degree 5 h ([5]; 4.0 mg/kg once a day for 3 d): 0.44 ± 0.19 mg
Swelling degree 7 h ([5]; 4.0 mg/kg once a day for 3 d): 0.33 ± 0.18 mg
Inhibition rate (%) ([6]; dose 0.05 μM): 42.66%*
A570 nm-A630 nm ([6]; dose 0.05 μM): 0.7579 ± 0.03744
Inhibition rate (%) ([6]; dose 0.1 μM): 46.86%**
A570 nm-A630 nm ([6]; dose 0.1 μM): 0.7024 ± 0.04477
Inhibition rate (%) ([6]; dose 0.2 μM): 62.24%*
A570 nm-A630 nm ([6]; dose 0.2 μM): 0.4991 ± 0.04854
Inhibition rate (corneal neovascularization) [7]: 47.20%
MVD (corneal microvessel density) [7]: 35.50 ± 3.223
CNV Incidence (%) [8, 9]: 54.21%
Leakage Light spot number [8, 9]: 161
CNV Incidence (%) [8, 10]: 46.24%
Leakage Light spot number [8, 10]: 86
CNV Incidence (%) [8, 11]: 45.26%
Leakage Light spot number [8, 11]: 62
CNV Incidence (%) [8, 12]: 37.68%
Leakage Light spot number [8, 12]: 26
